Entries after “also recorded” stand apart in the source; their conditions may differ. Where two headings read alike, the source gives them in different places.
Key:
natural suppressor cells [1] = experiment: Mixed leukocyte reaction (MLR) suppressor assay; assay type: cell-based, mouse (BALB/c, C57 BL/6); settings: for Effect of antagonist on derivative-enhanced suppression in MLR: with compound 10, cimetidine 10^-5 M or mepyramine 10^-6 M, four hours at 37° C
Procedure: Responder (BALB/c) and stimulator (C57 BL/6) spleen cells (5×10^5each) were incubated with graded numbers of NS cells in 0.3 ml/well in 96-well flat bottomed microculture plates (Costar, Data Packaging, Cambridge, MA). The culture medium was supplemented with 100 U/ml penicillin, 100 ug/ml of streptomycin (both GIBCO, Grand Island, NY), and 10=pooled human serum (VSP human serum, Biocell Laboratories, Carson CA). Co-cultured cells and stimulator cells were given 3300 rad before incubation. Cultures were maintained at 37° C. in 5% CO2 for 5 or 6 days. Eighteen hr before termination, 1 μCi of ^3 H!-thymidine (specific activity […]) (New England Nuclear, Boston, MA) was added to each culture. Cells were harvested as described above. The data were expressed as the arithmetic mean of triplicate cultures. Suppression was calculated as follows: percent suppression=1-(CPM with co-cultured cells)/(CPM without co-cultured cells)×100. […] To block the effects of agonists, […] cimetidine was used as an H2 antagonist and 10^-6 M mepyramine was used as an H1 antagonist.
CO-cultured and stimulator cells were given 3300 rad in vitro just prior to incubation. […] See, Khan et al., J. Immunol. (1985) 134:4100. […] To determine the role of H1 and H2 receptors in the modification of NS cell function, the incubation with compound 10 was carried out in the presence of either cimetidine (10^-5 M) or mepyramine (10^-6 M) for four hours at 37° C. The cells were then washed extensively and later added to co-cultures with responder and stimulator cells. […] Similar experiments were carried out with each of the indicated agonists (Table 5).

natural suppressor cells [2] = molecular target: T1, natural suppressor cells (Mus musculus, UniProt P97292); experiment: Blocking histamine effects in natural suppressor cells (H2 antagonism); assay type: cell-based, mouse (BALB/c); settings: for Antagonism by cimetidine (H2 antagonist) of cAMP accumulation: cimetidine 10^-5 M, compounds 6-8 at 10^-4 M, 9 at 10^-7 M; for Blockade of histamine mediated accumulation of cAMP: NS cells
T1 construct: cAMP accumulation
T1 sequence (P97292 whole entry): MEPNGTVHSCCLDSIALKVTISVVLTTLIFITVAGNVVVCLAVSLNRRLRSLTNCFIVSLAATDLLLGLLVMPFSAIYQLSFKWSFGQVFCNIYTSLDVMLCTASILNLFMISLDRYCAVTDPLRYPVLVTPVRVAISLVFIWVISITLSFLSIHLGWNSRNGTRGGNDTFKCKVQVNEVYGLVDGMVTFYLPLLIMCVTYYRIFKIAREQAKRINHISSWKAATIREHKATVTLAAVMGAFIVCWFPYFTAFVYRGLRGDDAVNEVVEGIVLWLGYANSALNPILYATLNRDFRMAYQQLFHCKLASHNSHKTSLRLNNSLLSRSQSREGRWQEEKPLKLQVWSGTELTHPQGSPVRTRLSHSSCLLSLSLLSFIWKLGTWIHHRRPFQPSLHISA
Procedure: This assay was carried out in the same fashion as already described for the derivatives except that ED-90 concentration of the test compound was chosen. Cimetidine was added at the same time in concentrations ranging from 10^-4 to 10^-8 M. Alternatively, 10^-6 M cimetidine was added to 10^-3 -10^-8 M concentration of agonists.

[3] = molecular target: T2, guinea pig myocardial adenylate cyclase (Cavia porcellus, UniProt P47747); experiment: Guinea pig myocardial adenylate cyclase assay; assay type: biochemical; settings: for Activity on guinea pig myocardium (in words): adenylate cyclase
T2 construct: histamine-stimulated adenylate cyclase with GPP(NH)P
T2 sequence (P47747 whole entry): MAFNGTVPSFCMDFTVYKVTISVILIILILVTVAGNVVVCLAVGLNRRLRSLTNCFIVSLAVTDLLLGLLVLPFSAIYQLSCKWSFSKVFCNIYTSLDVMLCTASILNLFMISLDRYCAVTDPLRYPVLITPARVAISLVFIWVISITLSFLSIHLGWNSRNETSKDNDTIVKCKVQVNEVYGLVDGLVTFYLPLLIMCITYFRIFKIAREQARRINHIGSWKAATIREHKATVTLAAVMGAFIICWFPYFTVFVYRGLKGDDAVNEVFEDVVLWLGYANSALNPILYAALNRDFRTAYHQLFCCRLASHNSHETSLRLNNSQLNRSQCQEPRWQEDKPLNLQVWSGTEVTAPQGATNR
Procedure: Male, partly albino, guinea pigs (600 g average weight) were killed by a blow to the head. The hearts were excised and immediately immersed in ice cold oxygenated Tyrode's solution. Both ventricles were dissected free and placed in 250 mM sucrose, 5 mM Tris, 1 mM EDTA, pH 7.45. The tissue was minced with a screen, and was then homogenized with 3 consecutive 5 sec bursts of a Polytron (Brinkman Instruments, Inc., Westbury, NY) at a setting of 11. The homogenate was then centrifuged at 1085×g for 20 min. The pellet was resuspended and recentrifuged twice. The final suspension was filtered through four layers of gauze. Adenylate cyclase was assayed by the method of Salomon et al., Anal. Biochem. (1974) 58:541 as modified by Bristow et al., Mol Pharmacol. (1982) 21:671. Enzyme protein (75-250 μg) was added to a reaction mixture that consisted of 0.1 mM Mg ATP, 0.5 mM MgCl2, 10 mM phosphocreatine, 14.5 μg of creatine kinase (1381 U/mg), 100 mM
The final reaction volume before addition of α-^32 P!ATP was 225 μl. Reaction tubes were stored in cryogenic racks (Kryorack, Isolab, Inc. Akron, OH) at 0° C.
The reaction mixture was pre-warmed in a shaking water bath at 30° C. for 5 min after which 25 μl ([…]) of α-^32 P!ATP (250-500 Ci/mM) was added to label the ATP pool. The assay time was 20 min, the time needed for measurable stimulation of adenylate cyclase. The ^32 P reaction was stopped by the addition of 750 μl of 1% sodium dodecysulfate. ^32 P-labelled cyclic AMP was then isolated by the dual Dowex-alumina column method of Salomon et al., supra. α-^32 P!ATP (New England Nuclear Corporation, Boston, MA) that gave reagent blanks of 50 cpm was purified on Dowex columns as described by Salomon et al., supra.

natural suppressor cells [4] = molecular target: T1, natural suppressor cells; experiment: Effects of histamine derivatives on cAMP accumulation in natural suppressor (NS) cells; assay type: cell-based, mouse (BALB/c); settings: for Relative potency: histamine = 1.0; for Activity / potency on NS cells (in words): cAMP accumulation, H2 activity
Source text: NS cells were obtained and cultured as follows: four-to six-month old BALB/c mice were anesthetized with pentobarbital and all major lymphoid organs, including all major lymph nodes, the spleen, and the thymus, were irradiated as described by Slavin et al., Science (1976) 193:1252. The skull, lungs, and hind legs were shielded with lead. The mice were given 200 rad per day, 5 times per week, to a total dose of 3400 rad. Irradiation was delivered from a single 250 kV (15A) source (Philips Medical Systems, Inc., Shelton, CT). The mice were killed between 5 and 15 days after completion of the TLI. Spleens were removed aseptically and single cell suspensions were prepared by gently pressing the spleen fragments through a nylon fiber mesh (Tetko, Inc., Elmsford, NY). These spleen cells were fed daily with tissue culture medium containing RPMI 1640, 10% FCS, 2 mM glutamine, 10% CAS and 5×10^-5 M 2-mercaptoethanol and were later cloned by limiting dilutior, The clones were maintained in RPMI 1640 medium with 10% PCS and 10% CAS.
NS cells were centrifuged and resuspended at b 1×10^6 /ml in PBS and incubated at 37° C. for 10 min with 10 mM IBMX at a final concentration at 20 μM. Alternatively the cells were resuspended in 5 mM HEPES and 1 mM MgSO4 and after five minutes were disrupted in a Dounce homogenizer. Broken cells were centrifuged at 20,000 g […] for thirty minutes and supernatant was discarded. The pellet was resuspended in Tris (pH 7.5), 5 mM HEPES and 1 mM MgSO4 and incubated with IBMX.
Cold TCA (100%) was added to a final concentration of 8% and the tubes were stored in ice. Samples were extracted 3 times with 3 volumes of ether. The ether was evaporated at 40° C. in a water bath for approximately 45 min. Acetylation of both experimental samples and cAMP standards were performed by addition of 10 μl of a mixture of triethylamine and acetic anhydride (2:1). […] The radio-immunoassay was performed as reported previously by Khan et al., J. Clin. Invest. (1985) 75:1578.

natural suppressor cells [5] = settings: literature, Khan et al. 1985; listed as histamine; cited from earlier work
lymphoid cells = experiment: Effect of beta adrenergic blockade on cAMP accumulation in lymphoid cells; assay type: cell-based; settings: 6×10^-6 M propranolol

Activity on guinea pig myocardium (in words) [3]	Relative potency (natural suppressor cells [4]; NS cells)	Structure (SMILES)	H1 activity in MLR (in words) (natural suppressor cells [1])	Activity / potency on NS cells (in words) (natural suppressor cells [4])	Blockade of histamine mediated accumulation of cAMP (natural suppressor cells [2])	also measured
–	–	CN/C(=N/CCSCc1nc[nH]c1C)NC#N [Cimetidine, reference compound]	–	–	–	Effect of antagonist on derivative-enhanced suppression in MLR (natural suppressor cells [1]): did not alter the derivative-enhanced suppression; Effect on basal activity (natural suppressor cells [2]; 10^-6 M cimetidine): did not lower the basal activity; Antagonism by cimetidine (H2 antagonist) of cAMP accumulation (natural suppressor cells [2]): competitively blocked the actions of compounds 6-8 (used at 10^-4 M) and 9 (used at 10^-7 M); Ki (natural suppressor cells [2]; lymphoid cells, read-out: Inhibition constant): 110 to 430 nM
–	–	COc1ccc(CN(CCN(C)C)c2ccccn2)cc1 [Mepyramine, reference compound]	–	–	–	Effect of antagonist on derivative-enhanced suppression in MLR (natural suppressor cells [1]): reversed the increase in suppressive activity of the derivative-stimulated NS cells
completely inactive	Inactive	CCCCCC(=O)NCCc1c[nH]cn1 [Compound 3, N-Hexamido-4-2'-aminoethyl!imidazole]	no H1 activity	impotent as H2 receptor agonists on NS cells	failed to block histamine mediated accumulation of cAMP	Activity / potency on NS cells (in words) (natural suppressor cells [4]; listed as compound 3): inactive; also recorded: Neither an aliphatic amide derivative of histamine (compound 3) nor the dipeptide conjugate of histamine (compound 12) altered intracellular cAMP; also recorded: nor did they stimulate intracellular accumulation of cAMP
no effect on the guinea pig myocardium	Inactive	CC(CCCC(=O)Nc1ccc(C(F)(F)F)cc1)NCCc1c[nH]cn1 (stereo not shown) [Compound 10]	only H1 agonistic action	lost all H2 activity	–	H1 activity in MLR (in words) (natural suppressor cells [1]; listed as compound 10): appeared to be a specific H1 receptor agonist
–	–	NCCc1c[nH]cn1 [Histamine, 2-(4'-imidazolinyl)ethylamino]	–	–	–	Effect on suppressive ability of NS cells (natural suppressor cells [5]): augmented the suppressive capacity of NS cells via H1 receptors; Stimulation of adenylate cyclase over base levels ([3]; histamine 10^-5 M): threefold stimulation of adenylate cyclase over base levels
–	Inactive	CC(CCCCC(=O)Nc1ccccc1C(F)(F)F)NCCc1c[nH]cn1 (stereo not shown) [Compound 11]	nullified both detectable H1 and H2 activity	impotent as H2 receptor agonists on NS cells	failed to block histamine mediated accumulation of cAMP	Activity / potency on NS cells (in words) (natural suppressor cells [4]; listed as compound 11): nullified both detectable H1 and H2 activity
–	–	CC(C)NCC(O)COc1cccc2ccccc12 (stereo not shown) [Propranolol]	–	–	–	Effect on histamine-induced intracellular accumulation of cAMP (lymphoid cells): had no effect on histamine-induced intracel accumulation of cAMP; Blockade of the effects of isoproterenol (lymphoid cells; 10^-5 M isoproterenol): completely blocked the effects of 10^-5 M isoproterenol
stimulated guinea pig myocardium	Inactive	CCCCNC(=O)CCCCC(C)NCCc1c[nH]cn1 (stereo not shown) [Compound 13]	no H1 activity	impotent as H2 receptor agonists on NS cells	failed to block histamine mediated accumulation of cAMP	Activity / potency on NS cells (in words) (natural suppressor cells [4]; listed as compound 13): inactive on NS cells; also recorded: nor did they stimulate intracellular accumulation of cAMP

Structure (SMILES)	Activity on guinea pig myocardium (in words) [3]	Relative potency (natural suppressor cells [4]; NS cells)	H1 activity in MLR (in words) (natural suppressor cells [1])	Activity / potency on NS cells (in words) (natural suppressor cells [4])	Blockade of histamine mediated accumulation of cAMP (natural suppressor cells [2])	also measured
CCCCCC(C)NCCc1c[nH]cn1 (stereo not shown) [Compound 2]	completely inactive	Inactive	no H1 activity	impotent as H2 receptor agonists on NS cells	failed to block histamine mediated accumulation of cAMP	Activity / potency on NS cells (in words) (natural suppressor cells [4]; listed as compound 2): inactive; also recorded: nor did they stimulate intracellular accumulation of cAMP
CC(CCCCC(=O)Nc1ccc(C(F)(F)F)cc1)NCCc1c[nH]cn1 (stereo not shown) [Compound 9]	strikingly impotent in guinea pig myocardium	4.3 × 10^4	–	very potent in NS cell cAMP assays	–	Activity on guinea pig myocardium (in words) ([3]; listed as compound 9): did not stimulate adenylate cyclase in guinea pig myocardium; Potency or activity relative to histamine (natural suppressor cells [4]; NS cells): 40,000 fold; Potency relative to histamine (natural suppressor cells [4]; NS cells): 4 orders of magnitude; Maximal efficacy on cAMP concentrations (in words) (natural suppressor cells [4]; NS cells, compared with histamine): lost a significant amount of maximal efficacy; Activity / potency on NS cells (in words) (natural suppressor cells [4]; listed as compound 9): most potent of this series on H2 receptors; also recorded: retained H2 activity; Antagonism by cimetidine (H2 antagonist) of cAMP accumulation (natural suppressor cells [2]): could not be completely inhibited by the H2 antagonist
